Experimental data reported in patent US4330549A, “Coumarins connected via an oxyalkyl group with a piperidine ring having anti-allergic action” (Boehringer Mannheim GmbH, priority 1979, dated 1982).

The compounds below were run on passive cutaneous anaphylactic reaction (PCA) (assay: Inhibition of passive cutaneous anaphylaxis (PCA) in rats, reaginic antibody to egg albumin). Conditions: Rattus norvegicus, po; dose 3.0 mg/kg (table head: p.o.; method b438: intravenously immediately before the antigen); rats, 6 animals per dose.
Assay type: in vivo, rat
`Cc1c(C)c2ccc(OCCCN3CCC(NC(=O)c4ccccc4)CC3)cc2oc1=O` [Example 1, 7-[3-(4-Benzamido-piperidino)-propoxy]-3,4-dimethylcoumarin] gave an inhibition in vivo at 3 mg/kg of 50%.
Compound `Cc1c(C)c2ccc(OCCCN3CCC(NC(=O)c4ccc(F)cc4)CC3)cc2oc1=O` [Example 2a, 3,4-Dimethyl-7-{3-[4-(4-fluoro-benzamido)-piperidino]-propoxy}-coumarin] has an inhibition in vivo at 3 mg/kg of 59%.
For `COc1ccc(C(=O)NC2CCN(CCCOc3ccc4c(C)c(C)c(=O)oc4c3)CC2)cc1` [Example 2b, 3,4-Dimethyl-7-{3-[4-(4-methoxy-benzamido)-piperidino]-propoxy}-coumarin], the inhibition in vivo at 3 mg/kg was 36%.
`Cc1c(C)c2ccc(OCCCN3CCC(NC(=O)c4ccc(C(C)(C)C)cc4)CC3)cc2oc1=O` [Example 2d, 7-{3-[4-(4-t.-Butyl-benzamido)-piperidino]-propoxy}-3,4-dimethyl-coumarin] was tested, and the inhibition in vivo at 3 mg/kg was 52%.
Compound `Cc1cc(=O)oc2ccc(OCCCN3CCC(NC(=O)c4ccccc4)CC3)cc12` [Example 4a, 6-[3-(4-Benzamido-piperidino)-propoxy]-4-methyl-coumarin] has an inhibition in vivo at 3 mg/kg of 61%.
`Cc1c(C)c2ccc(OCCCN3CCC(NC(=O)c4ccc(Cl)cc4)CC3)cc2oc1=O` [Example 6, 7-{3-[4-(4-Chlorobenzamido)-piperidino]-propoxy}-3,4-dimethylcoumarin] gave an inhibition in vivo at 3 mg/kg of 30%.
`Cc1c(C)c2ccc(OCCCN3CCC(NC(=O)c4cccs4)CC3)cc2oc1=O` [Example 7b] showed an inhibition in vivo at 3 mg/kg of 23%.
`Cc1cc(=O)[nH]c2ccc(OCCCN3CCC(NC(=O)c4ccccc4)CC3)cc12` [Example 8, 6-[3-(4-Benzamido-piperidino)-propoxy]-4-methyl-2-oxo-1,2-dihydroquinoline] was tested, and the inhibition in vivo at 3 mg/kg was 34%.
`Cc1cc(=O)n(C)c2ccc(OCCCN3CCC(NC(=O)c4ccccc4)CC3)cc12` [Example 10, 6-[3-(4-Benzamido-piperidino)-propoxy]-1,4-dimethyl-2-oxo-1,2-dihydroquinoline] was tested, and the inhibition in vivo at 3 mg/kg was 54%.

Same assay, conditions: Rattus norvegicus, po; dose 100.0 mg/kg (table head: p.o.; method b438: intravenously immediately before the antigen); rats, 6 animals per dose; comparison compound
In the case of `CCN(CC)C(=O)N1CCN(C)CC1` [Diethylcarbamazin, 1-diethylcarbamoyl-4-methylpiperazine, reference compound], the inhibition in vivo at 100 mg/kg is reported as 47%.

Same assay, conditions: relative to 7-[3-(4-benzamido-piperidino)-propoxy]-3,4-dimethylcoumarin (Example 1); PCA test in vivo in rats
In the case of `CCN(CC)C(=O)N1CCN(C)CC1` [Diethylcarbamazin, 1-diethylcarbamoyl-4-methylpiperazine, reference compound], the “times more substance that must be used than of 7-[3-(4-benzamido-piperidino)-propoxy]-3,4-dimethylcoumarin for comparable inhibition of the passive cutaneous anaphylactoid reaction” value is reported as “about 40 times”.
